From patent US20030095958A1, “Inhibitors of bace” (priority 2001, published 2003)

biological target: BACE (Homo sapiens, UniProt P56817); test: Ki Determination for the Inhibition of BACE (FS-1 peptide fluorescence cleavage assay); format: biochemical; conditions: apparent Ki; 50 nM BACE, 10 μM FS-1 substrate, 0.1M sodium acetate pH 4.5
Outline: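 Apparent Ki values derive from fitting fluorescence progress data (355 nm excitation, 495 nm emission) of FS-1 peptide cleavage to an integrated competitive tight-binding model. Reactions held 50 nM BACE, 10 μM substrate and inhibitor in 2% DMSO, pH 4.5 acetate buffer, with a 15 min enzyme-compound preincubation at room temperature.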

BACE, sequence (P56817 46-501): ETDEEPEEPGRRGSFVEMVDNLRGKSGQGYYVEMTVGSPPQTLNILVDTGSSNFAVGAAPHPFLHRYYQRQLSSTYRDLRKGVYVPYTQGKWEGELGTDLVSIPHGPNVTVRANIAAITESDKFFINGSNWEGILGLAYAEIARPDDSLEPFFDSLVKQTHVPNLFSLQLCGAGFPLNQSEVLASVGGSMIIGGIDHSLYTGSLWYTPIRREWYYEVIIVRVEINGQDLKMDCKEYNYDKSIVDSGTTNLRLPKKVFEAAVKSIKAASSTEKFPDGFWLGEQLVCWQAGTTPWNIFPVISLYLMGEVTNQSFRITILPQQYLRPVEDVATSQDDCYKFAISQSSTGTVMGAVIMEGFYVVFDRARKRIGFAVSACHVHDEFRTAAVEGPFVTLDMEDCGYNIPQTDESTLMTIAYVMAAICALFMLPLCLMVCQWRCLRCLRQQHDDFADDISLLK

Row | SMILES | Ki
1 | O=C(c1cccc2ccccc12)n1c2c(c3cc(OCc4ccccc4I)ccc31)CCNC2 [Compound 528, [6-(2-Iodo-benzyloxy)-1,2,3,4-tetrahydro-b-carbolin-9-yl]-naphthalen-1-yl-methanone] | < 3 µM
2 | O=C(Nc1cc(C(F)(F)F)ccc1N1CCNCC1)c1cccc2cccnc12 [Compound 149, Quinoline-8-carboxylic acid (2-piperazin-1-yl-5-trifluoromethyl-phenyl)-amide] | 3 to 30 µM
3 | CC(C)NS(=O)(=O)c1ccc(-c2ccc(N3CCNCC3)c(NC(=O)c3cccc4ccccc34)c2)cc1 [Compound 144, Naphthalene-1-carboxylic acid (4′-isopropylsulfamoyl-4-piperazin-1-yl-biphenyl-3-yl)-amide] | 3 to 30 µM
4 | O=C(Nc1cc(-c2ccc(S(=O)(=O)NC3CCCCC3)cc2)ccc1N1CCNCC1)c1cccc2ccccc12 [Compound 147, Naphthalene-1-carboxylic acid (4′-cyclohexylsulfamoyl-4-piperazin-1-yl-biphenyl-3-yl)-amide] | < 3 µM
5 | O=C(Nc1cc(Oc2ccc(Cl)cc2)ccc1N1CCNCC1)c1cccc2ccccc12 [Compound 133, Naphthalene-1-carboxylic acid [5-(4-chloro-phenoxy)-2-piperazin-1-yl-phenyl]-amide] | 3 to 30 µM
6 | Cc1cc(Cl)ccc1OCCCC(=O)N1CCNCC1C(=O)Nc1ccc2ccccc2c1 (stereo not drawn) [Compound 200, 1-[4-(4-Chloro-2-methyl-phenoxy)-butyryl]-piperazine-2-carboxylic acid naphthalen-2-ylamide] | > 30 µM
7 | FC(F)(F)c1ccc(N2CCNCC2)c(NCc2ccc3ccccc3c2)c1 [Compound 100, Naphthalen-2-ylmethyl-(2-piperazin-1-yl-5-trifluoromethyl-phenyl)-amine] | 3 to 30 µM
8 | CN(C)C(=O)C1CN(c2ccc(-c3ccc(C(F)(F)F)cc3)cc2NCc2ccc3ccccc3c2)CCN1 (stereo not drawn) [Compound 195, 4-{3-[(Naphthalen-2-ylmethyl)-amino]-4′-trifluoromethyl-biphenyl-4-yl}-piperazine-2-carboxylic acid dimethylamide] | < 3 µM
9 | CC(NC(=O)C1CNCCC1c1ccc(-c2ccccc2)cc1)c1cccc2ccccc12 (stereo not drawn) [Compound 407] | 3 to 30 µM

Further lines, results first:

Row | Ki | SMILES
10 | < 3 µM | O=C(Nc1cc(Br)cc(COc2ccccc2C(F)(F)F)c1N1CCNCC1)c1nccc2ccccc12 [Compound 176, Isoquinoline-1-carboxylic acid [5-bromo-2-piperazin-1-yl-3-(2-trifluoromethyl-phenoxymethyl)-phenyl]-amide]
11 | 3 to 30 µM | O=C(Nc1ccc2ccccc2c1)c1ccc(COc2ccccc2C(F)(F)F)cc1C1=CCNCC1 [Compound 308, N-Naphthalen-2-yl-2-{1,2,3,6-tetrahydro-pyridin-4-yl)-4-(2-trifluoromethyl-phenoxymethyl)-benzamide]
12 | < 3 µM | c1ccc(-c2ccc(C3CCNCC3OCc3ccc4ccccc4c3)cc2)cc1 (stereo not drawn) [Compound 401]
13 | 3 to 30 µM | O=C(NCC1CNCCC1c1ccc(COc2ccccc2C(F)(F)F)cc1)Nc1cccc2ccccc12 (stereo not drawn) [Compound 224, 1-Naphthalen-1-yl-3-{4-[4-(2-trifluoromethyl-phenoxymethyl)-phenyl]-piperidin-3-ylmethyl}-urea]
14 | 3 to 30 µM | O=C(Nc1cc(-c2ccc(C(F)(F)F)cc2)c(COc2ccccc2C(F)(F)F)cc1N1CCNCC1)c1nccc2ccccc12 [Compound 185, Isoquinoline-1-carboxylic acid [4-piperazin-1-yl-4′-trifluoromethyl-6-(2-trifluoromethyl-phenoxymethyl)-biphenyl-3-yl]-amide]
15 | < 3 µM | FC(F)(F)c1ccccc1OCc1ccc(COc2ccc(-c3ccccc3)cc2)c(C2=CCNCC2)c1 [Compound 325, 4-[2-(Biphenyl-4-yloxymethyl)-5-(2-trifluoromethyl-phenoxymethyl)-phenyl]-1,2,3,6-tetrahydro-pyridine]
